Read-outs that look alike come from different tables or passages of the source.
How the values were obtained:
[1] = system: mice (Strain: C57BL/6); details: C57BL/6 mice fasted 24 hours; single application given on successive days, 2.5 mg/kg of body weight s.c.; food consumption over 4 days; vs physiological saline; FIG. 1
Method: Test method by single administration:
(§1) 10 mice (Strain: C57BL/6) were deprived of food for 24 hours while being given free access to drinking water.
20 minutes before the end of the fasting period pramipexol was administered (2.5 mg/kg of body weight s.c.). The control group, also 10 mice, were given physiological saline solution, the solvent used for pramipexol. Then the animals were offered food and the food consumption over 4 days in 30 minute cycles was measured.

[2] = system: mice (Strain: C57BL/6)
Method: as §1

CCCN[C@H]1CCc2nc(N)sc2C1 [Pramipexol] was tested, and the food intake [1] was “did not significantly reduce food intake”, the food intake ([2]; C57BL/6 mice fasted 24 hours, continuous administration by alzet Mini-osmotic pump s.c., 2.5 mg of pramipexol/24 hours, measured for 4 days, vs physiological saline, FIG. 1) was “permanent, statistically highly significant inhibition in food intake” and the change in weight ([2]; C57BL/6 mice, continuous (long term) administration by osmotic pump s.c., measured daily over 22 days, administration ending after 14 days, FIG. 2) was “permanent weight reduction was observed which was statistically highly significant even after the pramipexol treatment had ended”.
